From PubChem BioAssay (NCI)
“And” between values parts separate entries of the source, which are not always exact repeats. Equal values may be shown once.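 Tested at 5 concentrations; 48 h exposure; 96-well plates; endpoints linearly interpolated, else capped at highest concentration. GI50 marks 50% less growth. The concentration for full growth arrest is given as TGI.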

Key:
Experiment in all cases: inhibition of tumour cell growth, NCI panel, 48 h
[1] = system: ACHN renal
[2] = system: COLO 205 colon
[3] = system: HCC-2998 colon
[4] = system: MALME-3M melanoma
[5] = system: MOLT-4 leukemia
[6] = system: RPMI-8226 leukemia
[7] = system: SF-295 CNS
[8] = system: SK-OV-3 ovarian
[9] = system: SN12C renal
[10] = system: UO-31 renal

SMILES | GI50 [1] [µM] | TGI [1] [µM] | GI50 [2] | TGI [2] | GI50 [3] | TGI [3] [µM] | GI50 [4] [µM] | TGI [4] | GI50 [5] | TGI [5] [µM] | GI50 [6] | TGI [6] | GI50 [7] | TGI [7] [µM] | GI50 [8] | TGI [8] [µM] | GI50 [9] [µM] | TGI [9] [µM] | GI50 [10] | TGI [10] [µM]
Cc1ccc(C(=O)c2sc3nc4c(cc3c2N)CCCC4)c(C)c1 | 0.872 | > 100 | 0.899 µM | 5.07 µM | 4.72 µM | > 100 | 0.0754 | > 100 µM | 0.563 µM | > 100 | 0.406 µM | 6.97 µM | 0.291 µM | 98.9 | 0.515 µM | > 100 | 0.841 | > 100 | 0.766 µM | > 100
COc1cccc(-c2nn(-c3ccccc3)cc2-c2ccnc(NCCCNC(=O)c3cccc(C(F)(F)F)c3)c2)c1 | 4.08 | 18.3 | 3.33 µM | 12.4 µM | 3.96 µM | 18.2 | 2.66 | 8.22 µM | 2.63 µM | 9.35 | 2.64 µM | 11.5 µM | 3.32 µM | 13.9 | 7.04 µM | 29.2 | 6.06 | 38.5 | 2.69 µM | 16.6
COc1cccc(/C=C/c2nc3c(cnn3-c3ccccc3)c(=O)[nH]2)c1 | 28.1 | > 100 | > 100 µM | > 100 µM | > 100 µM | > 100 | > 100 | > 100 µM | > 100 µM | > 100 | > 100 µM | > 100 µM | 17.8 µM | > 100 | > 100 µM | > 100 | > 100 | > 100 | > 56.8 µM | > 100
O=[P+](O)c1ccccn1 | – | > 100 | – | > 100 µM | – | > 100 | – | > 100 µM | – | > 100 | – | > 100 µM | – | > 100 | – | > 100 | – | > 100 | – | > 100
O=C(CSCC(=O)N/N=C/c1ccccc1O)N/N=C\c1ccccc1O | 0.877 | 25 | 2.19 µM | > 100 µM | 1.61 µM | 34.4 | 2.29 | 25.2 µM | – | – | 3.49 µM | > 100 µM | 1.78 µM | > 100 | 2.4 µM | > 100 | 2.46 | > 100 | 1.06 µM | 37.3
CCOC(=O)Nc1nc2ccccc2[nH]1 | 6.56 | > 100 | 3.62 µM and 3.27 µM | 15.2 µM and > 32.6 µM | 19.8 µM and 95.3 µM | > 100 | 5.18 | > 100 µM | 4.57 µM and 5 µM | > 100 | 4.13 µM and 2.26 µM | > 100 µM | 4.32 µM and 5.57 µM | > 100 | 4.69 µM and 4.19 µM | > 100 | – | > 100 | 5.8 µM and 5.34 µM | > 100
Cc1cccc(C)c1NC(=O)CCc1nnc2s/c(=C\c3ccc(N(C)C)cc3)c(=O)n12 | – | > 100 | – | > 100 µM | – | > 100 | – | > 100 µM | – | > 100 | – | > 100 µM | – | > 100 | – | > 100 | – | > 100 | – | > 100
Cc1cc(N(CCC#N)CCC#N)ccc1N=Nc1cc(Cl)ccc1Cl | – | 25.4 | – | 4.97 µM | – | 32.9 | – | 17.9 µM | – | 34.9 | – | 34.7 µM | – | 34.9 | – | 29.9 | – | 27.1 | – | 30.9
C/C(=N\NC(N)=S)c1ccc(C)c(C)c1 | – | > 100 | – | > 100 µM | – | > 100 | – | 94.1 µM | – | 90.2 | – | > 100 µM | – | > 100 | – | > 100 | – | > 100 | – | > 100
CCC1C(C)C=NN1c1nc(N)nc(C(C#N)=Nc2ccc(N(C)C)cc2)n1 (configuration not stated) | 9.17 | 17.1 | – | – | 9.93 µM | 19.6 | – | – | 21.6 µM | > 50 | 2.55 µM | > 50 µM | 8.96 µM | 16.1 | 9.32 µM | 17.8 | 9.76 | 18.9 | 15.1 µM | > 50
O=c1c2cc(Br)cc(Br)c2nc(CCCl)n1-c1ccc(O)c([N+](=O)[O-])c1 | – | 33.9 | – | 36.3 µM | – | 32.4 | – | 36.4 µM | – | 50.5 | – | 56.1 µM | – | 45 | – | 29.5 | – | 31.8 | – | 33.9
O=C(Cc1nc2sc3c(c2c(=O)[nH]1)CCCC3)Nc1ccccc1 | – | > 100 | – | > 100 µM | – | > 100 | – | > 100 µM | – | > 100 | – | > 100 µM | – | > 100 | – | > 100 | – | > 100 | – | –
C[C@H]1C/C=C/[C@H]2[C@@H]3O[C@]3(C)[C@@H](C)[C@H]3[C@H](Cc4ccccc4)NC(=O)[C@]32OC(=O)O/C=C/[C@@](C)(O)C1=O | – | – | 0.0194 µM and 0.0125 µM and 0.025 µM | 49.2 µM and 98.6 µM and 70.8 µM | 0.155 µM and 0.342 µM | – | 0.0212 | 2.91 µM and 3.5 µM and 0.877 µM | 0.289 µM and 0.052 µM | – | 0.235 µM and 0.0493 µM | 76.2 µM and 44.9 µM and 32.2 µM | 0.0484 µM and 0.025 µM | – | 0.025 µM | – | < 0.025 | – | – | 0.0499
CCc1cccc(C(C)C)c1NC(=O)CCl | – | > 100 | – | – | – | – | – | > 100 µM | – | > 100 | – | > 100 µM | – | > 100 | – | > 100 | – | > 100 | – | > 100
CCCCC(C)/C=C/C(=O)C1=C(O)/C(=C/C(=O)O)OC1=O (configuration not stated) | – | > 100 | – | > 100 µM | – | – | – | > 100 µM | – | > 100 | – | > 100 µM | – | > 100 | – | > 100 | – | > 100 | – | > 100
C/C(=N\NC(=O)C[N+](C)(C)C)c1sc(-c2cccnc2)nc1C | – | > 100 | – | > 100 µM | – | > 100 | – | > 100 µM | – | > 100 | – | > 100 µM | – | > 100 | – | > 100 | – | – | – | > 100
Cc1coc2c1C(=O)C(=O)c1ccccc1-2 | – | – | – | – | – | 3.35 | – | 2.96 µM | – | 6.03 | – | – | – | 3.03 | – | 3.25 | – | 2.12 | – | 10.4
